# Laboratory results from PubChem BioAssay AID588630 (NMMLSC, 2011).
# “And” between values parts separate entries of the source, which are not always exact repeats. Equal entries are not always repeated. The source made the active and inactive calls.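 Rule for the calls: active = fitted potency at or below 10 µM with a response change of at least 30% across doses and an acceptable curve fit; inactive = the rest.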
# Target: GTPase HRas (Homo sapiens) (UniProt P01112)
# Assay: blockers of fluorescent GTP loading onto wildtype HRas – biochemical, GST-H-Ras beads, Bodipy-FL-GTP, flow cytometry, multiplex, round 2, SAR follow-up (AID 588630)
# Details: Bodipy-FL-GTP binding
# Chain of GTPase HRas (Homo sapiens) (P01112 whole entry, looked up): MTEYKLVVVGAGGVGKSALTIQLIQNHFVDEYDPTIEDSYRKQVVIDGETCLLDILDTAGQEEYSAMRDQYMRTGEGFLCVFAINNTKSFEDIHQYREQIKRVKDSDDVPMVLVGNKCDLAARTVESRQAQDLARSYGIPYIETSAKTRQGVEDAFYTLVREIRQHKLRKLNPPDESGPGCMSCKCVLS
row,EC50,Structure (SMILES)
1,1320 nM,COc1ccccc1C(=O)NC(=S)Nc1sc2c(c1C(=O)O)CC(C)(C)OC2
2,140 nM,CC(C)(C)C1Cc2c(sc(NC(=S)NC(=O)c3ccccc3)c2C(=O)O)CO1 (centres undefined)
3,193 nM,Cc1ccc(C(=O)NC(=S)Nc2sc3c(c2C(=O)O)CC(C)(C)OC3)cc1
4,79 nM,CC1(C)Cc2c(sc(NC(=S)NC(=O)c3ccco3)c2C(=O)O)CO1
5,98 nM,CC1(C)Cc2c(sc(NC(=S)NC(=O)c3ccc(F)cc3)c2C(=O)O)CO1
6,444 nM,Cc1ccccc1C(=O)NC(=S)Nc1sc2c(c1C(=O)O)CC(C)(C)OC2
7,275 nM,COc1cccc(C(=O)NC(=S)Nc2sc3c(c2C(=O)O)CC(C)(C)OC3)c1
8,31 nM,O=C(NC(=S)Nc1sc2c(c1C(=O)O)CC1(CCCC1)OC2)c1ccccc1
9,625 nM,CC1(C)Cc2c(sc(NC(=S)NC(=O)C3CCCCC3)c2C(=O)O)CO1
10,37 nM,CCC1(C)Cc2c(sc(NC(=S)NC(=O)c3ccccc3)c2C(=O)O)CO1 (centres undefined)
11,597 nM,CC1(C)Cc2c(sc(NC(=S)NC(=O)c3ccc(Br)cc3)c2C(=O)O)CO1
12,1780 nM,CC1(C)Cc2c(sc(NC(=S)NC(=O)c3ccccc3Br)c2C(=O)O)CO1
13,35 nM,CC1(C)Cc2c(sc(NC(=S)NC(=O)c3cccs3)c2C(=O)O)CO1
14,106 nM and 242 nM,O=C(NC(=S)Nc1sc2c(c1C(=O)O)CCOC2)c1ccccc1
15,725 nM,CC1(C)Cc2c(sc(NC(=O)NC(=O)c3ccccc3)c2C(=O)O)CO1
16,436 nM,CC1(C)Cc2c(sc(NC(=S)NC(=O)c3cccc(F)c3)c2C(=O)O)CO1
17,250 nM,COc1ccc(C(=O)NC(=S)Nc2sc3c(c2C(=O)O)CC(C)(C)OC3)cc1
18,1390 nM,Cc1cccc(C(=O)NC(=S)Nc2sc3c(c2C(=O)O)CC(C)(C)OC3)c1
19,201 nM,CC1Cc2c(sc(NC(=S)NC(=O)c3ccccc3)c2C(=O)O)CO1 (centres undefined)
20,20 nM,CC1(C)Cc2c(sc(NC(=S)NC(=O)c3ccccc3)c2C(=O)O)CO1
21,359 nM,CC1(C)Cc2c(sc(NC(=S)NC(=O)c3ccccc3F)c2C(=O)O)CO1
22,43 nM,CC1(C)CCc2sc(NC(=S)NC(=O)c3ccccc3)c(C(=O)O)c2C1

# Same assay, conditions: at 100 µM (top of the series)
row,% response (remaining GTP binding),Structure (SMILES)
1,inactive,CC1(C)Cc2c(sc(NC(=S)Nc3ccccc3)c2C(=O)O)CO1
2,inactive,CC1(C)Cc2c(sc(NC(=S)NC(=O)c3cccc(Br)c3)c2C(=O)O)CO1
